PMC4261083, “An atypical residue in the pore of Varroa destructor GABA-activated RDL receptors affects picrotoxin block and thymol modulation” (Insect Biochemistry and Molecular Biology, 2014)
Positions count from the first letter of the chain named.

How the values were obtained:
Assay type in all cases: cell-based
[1] = target: T1, wild type Drosophila RDL receptor (Drosophila melanogaster, UniProt P25123); assay: GABA activation of RDL receptors, two electrode voltage clamp in Xenopus oocytes
T1 construct: expressed in transfected cells; host or cells: Xenopus laevis oocytes injected with cRNA
T1 sequence (P25123 45-606): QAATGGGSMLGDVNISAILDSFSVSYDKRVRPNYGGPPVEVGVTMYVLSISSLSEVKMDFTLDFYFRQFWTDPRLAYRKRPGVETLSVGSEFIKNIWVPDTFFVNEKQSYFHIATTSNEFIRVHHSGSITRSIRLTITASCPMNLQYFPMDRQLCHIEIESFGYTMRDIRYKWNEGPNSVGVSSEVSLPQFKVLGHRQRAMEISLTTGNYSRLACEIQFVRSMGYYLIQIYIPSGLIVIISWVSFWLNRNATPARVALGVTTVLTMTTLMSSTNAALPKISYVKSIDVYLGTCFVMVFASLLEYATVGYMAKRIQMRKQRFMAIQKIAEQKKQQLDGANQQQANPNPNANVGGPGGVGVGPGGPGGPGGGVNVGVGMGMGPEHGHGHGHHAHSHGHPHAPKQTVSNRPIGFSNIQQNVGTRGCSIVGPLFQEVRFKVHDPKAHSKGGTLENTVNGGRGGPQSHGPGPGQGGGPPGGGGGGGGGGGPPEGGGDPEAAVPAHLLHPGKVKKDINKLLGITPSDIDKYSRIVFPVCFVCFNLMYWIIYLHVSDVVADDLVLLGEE
Description: (§1) X. laevis oocyte-positive females were purchased from NASCO (Fort Atkinson, Wisconsin, USA) and maintained according to standard methods. Harvested stage V-VI Xenopus oocytes were washed in four changes of ND96 (96 mM NaCl, 2 mM KCl, 1 mM MgCl2, 1 mM CaCl2, 5 mM HEPES, pH 7.5), de-folliculated in 1.5 mg ml^−1 collagenase Type 1A for approximately 2 h, washed again in four changes of ND96 and stored in ND96 containing 2.5 mM sodium pyruvate, 0.7 mM theophylline and […].
(§2) Site directed mutagenesis was performed with the QuikChange mutagenesis kit (Agilent, La Jolla, CA). cRNA was transcribed in vitro from linearised pGEMHE cDNA template using the mMessage mMachine T7 Transcription kit (Ambion, Austin, Texas, USA). Stage V and VI oocytes were injected with 5 ng cRNA, incubated at 18 °C, and currents recorded 18–24 h post-injection.
(§3) Currents were recorded at 5 kHz and filtered at a frequency of 1 kHz. Micro-electrodes were fabricated from borosilicate glass (GC120TF-10, Harvard Apparatus, Edenbridge, Kent, UK) using a one stage horizontal pull (P-87, Sutter Instrument Company, California, USA) and filled with 3 M KCl. […] Oocytes were perfused with ND96 at a constant rate of 12 ml min^−1. Drug application was via a simple gravity fed system calibrated to run at the same rate.
(§4) Analysis and curve fitting was performed using Prism v5 (GraphPad Software, San Diego, California, USA). Concentration-response data for each oocyte was normalised to the maximum current for that oocyte. The mean and S.E.M. for a series of oocytes were fitted to the four parameter logistic equation in Prism.

[2] = target: T2, A20′S mutant Drosophila RDL receptor (Drosophila melanogaster, UniProt P25123, A319S); assay: as above
T2 construct: expressed in transfected cells; host or cells: Xenopus laevis oocytes injected with cRNA
T2 sequence (P25123 45-606 A319S): T1 sequence (P25123 45-606) with A275S
Description: as §1, §2, §3, §4

[3] = target: T3, 4M2 mutant Drosophila RDL receptor (N-7′H, T6′M, A20′S and A21′Q) (Drosophila melanogaster, UniProt P25123, A319S/A320Q/N292H/T305M); conditions: 4M2 RDL
T3 construct: expressed in transfected cells; host or cells: Xenopus laevis oocytes injected with cRNA
T3 sequence (P25123 45-606 N292H/T305M/A319S/A320Q): T1 sequence (P25123 45-606) with N248H, T261M, A275S, A276Q
Description: as §1, §2, §3, §4

NCCCC(=O)O [GABA]
GABA nH (Hill slope) [1]: 1.6 ± 0.5
GABA nH (Hill slope) [2]: 1.6 ± 0.4

Cc1ccc(C(C)C)c(O)c1 [Thymol, thymol]
Effect of thymol on GABA-induced responses ([3]; 100 μM thymol, at some GABA concentrations): inhibition
Fold change in EC50 ([3]; GABA EC50 control vs +100 μM thymol): 3.0
% Imax ([3]; GABA concentration-response in presence of 100 μM thymol): 52 ± 4%
